In US20060154910A1, “Use of steroids to treat ocular disorders” (priority 2003, published 2006):

Experiments:
rabbits = assay: Rabbit dexamethasone acetate induced IOP elevation, topical ocular anecortave acetate; format: in vivo; details: for IOP change versus vehicle treated group: topical ocular three times a day for 2 weeks, rabbits on weekly subTenon's dexamethasone acetate 1 mg/kg, FIG. 2
Protocol: Three groups of rabbits received weekly subTenon's injections of dexamnethasone acetate (1 mg/kg) for 4 weeks. After two weeks, the IOPs of all three groups measured approximately […]. The rabbits were then treated with vehicle, 0.1% anecortave acetate, a 1% anecortave acetate by topical ocular dosing three times a day for the remaining 2 weeks. The IOP continued to increase in the vehicle treated group.

[1] = tested on: patients with documented glucocorticoid induced ocular hypertension; assay: Topical anecortave acetate in patients with glucocorticoid induced ocular hypertension (IOP); format: in vivo, human; details: patients (n=15), 1% eye drops topically three times per day for up to 12 weeks, glucocorticoid medication continued; reduced from 29 mm Hg; FIG. 1
Protocol: Patients (η=15) with documented glucocorticoid induced ocular hypertension were treated topically with 1% anecortave acetate eye drips three times per day for up to 12 weeks. The patients continued to receive their glucocorticoid medication.

CC(=O)OCC(=O)[C@@]1(O)CC[C@H]2[C@@H]3CCC4=CC(=O)CC[C@]4(C)C3=CC[C@@]21C [anecortave acetate, 4,9(11)-pregnadien-17α,21-diol-3,20dione-21-acetate]
IOP change versus vehicle treated group (rabbits; 0.1% anecortave acetate): significantly lowered | IOP change versus vehicle treated group (rabbits; 1% anecortave acetate): significantly lowered | IOP after anecortave acetate treatment [1]: 19-22 mm Hg

CC(=O)OCC(=O)[C@@]1(O)[C@H](C)C[C@H]2[C@@H]3CCC4=CC(=O)C=C[C@]4(C)[C@@]3(F)[C@@H](O)C[C@@]21C [dexamnethasone acetate, dexamethasone acetate, reference compound]
IOP after two weeks of glucocorticoid injections (rabbits; rabbits, weekly subTenon's injections 1 mg/kg, after two weeks, all three groups): approximately 5 mm Hg
